Like-named read-outs stand apart in the source and are kept apart here. Blank lines part the entries; values can stand above or below the compound they belong to.
Key:
[1] = Evaluation of stability in PBS buffer (pH=7.4), HPLC; type: physicochemical; conditions: for half-life at 1 mM: PBS buffer pH=7.4, 37° C., read-out: half-life time (T1/2) in PBS buffer (converted)
Method: The stabilities of several cyclic carbonate analogues in PBS buffer (pH=7.4) were tested first to determine the standard level of the drug decomposition by media (Table 1). PBS (phosphate buffered saline) buffer is a standard solution used in plasma stability tests. […] After the compounds were incubated in PBS buffer at 37° C., the degradation of the compounds with incubation time was monitored. As the number of fluorines at the C6 position was increased, the half-life time (T1/2) of the molecule was decreased dramatically (4 vs 25 vs 35). T1/2 of the C6-methyl analogue (4) was more than 48 hours and T1/2 of C6-monofluoromethyl analogues (25, 29, and 30) were about 25 hours while T1/2 of C6-trifluoromethyl analogues (35, 39, and 40) were about 5 hours. If the substitution of C-6 position (CH3, CH2F, or CF3) was same, T1/2 of diverse benzyl esters (benzyl, 4-fluorobenzyl, or 2,4-difluorobenzyl) were not dramatically changed. […] These half-lives of benzyl esters and cyclic carbonates in PBS buffer were sufficient to use these promoieties for the penetration of the cell membrane.
The stock solution of the test compound (10 mM in acetonitrile, 50 μL) was added to PBS buffer (pH=7.4, 450 μL), and the mixture was incubated at 37° C. Aliquots of the samples were analyzed directly by HPLC (See below). These tests were conducted two times in each compound.
(§1) Analysis was performed on a Phenomenex® Luna C18 column (250×4.6 mm) eluted with a gradient conditions of acetonitrile and H2O. Detection was by UV absorbance at 257 nm or total count of single ion in Agilent 6210 LC-TOF mass spectra.

[2] = Evaluation of stability in human plasma, HPLC or LC-TOF; type: in vitro ADME
Method: The stabilities of diverse cyclic carbonate prodrugs (4, 9, 10, 11, 17, 18, 19, 25, 29, 30, 39, 40, and 41), which have a chromosphere for UV detection, in human plasma were tested using HPLC. After the mixture of test compounds and human plasma were incubated at 37° C., the degradation of the compounds was monitored by HPLC (Table 2). […] The peaks of the corresponding diols (3, 24, or 34), which were the compounds that result when only the carbonate moiety of the analogues was hydrolyzed, were not observed. The half-lives of the benzyl or phenyl ester moieties may be shorter than carbonate, under tested conditions for such compounds to be used effectively as prodrugs.
Human plasma (100%, 480 μL) was incubated at 37° C. for 5 min. The stock solution of the test compound (100 mM in acetonitrile, 20 μL) was added to the human plasma, and the mixture was incubated at 37° C. Aliquots (80 μL) of the plasma samples were removed and mixed with an equal volume of acetonitrile. The mixture was stirred vigorously and centrifuged (5500 rpm, 5 min). The supernatant was filtered and the filtrate was analyzed by HPLC or LC-TOF (See below). These tests were conducted two times in each compound.
as §1

[3] = human, human plasma (100%), 37° C., read-out: half-life (T1/2) in human plasma
[4] = human, human plasma (100%), 37° C., read-out: T1/2 (half-lives of diverse carbonate in human plasma)
[5] = human, human plasma (100%), 37° C., read-out: T1/2 (stabilities of the benzyl amide analogues with acetal, ketal, t-butyl carbonate promoieties in human plasma)
[6] = read-out: half-life of the ester moieties on the carboxylic acids

SMILES: COC(=O)CC1(CF)CCOC(=O)O1 (stereo not drawn)
- melting point: 42 to 42.5 °C

SMILES: CC1(CC(=O)OCc2ccccc2)CCOC(=O)O1 (stereo not drawn) [compound 4]
- half-life at 1 mM [1]: > 48 h
- half-life at 4 mM [2, 3]: 4 min

SMILES: CC1(CC(=O)Oc2ccccc2)CCOC(=O)O1 (stereo not drawn) [compound 9]
- half-life at 4 mM [2, 3]: < 3 min
- melting point: 62 to 62.5 °C

SMILES: CC1(CC(=O)Oc2ccc(F)cc2)CCOC(=O)O1 (stereo not drawn) [compound 10]
- half-life at 4 mM [2, 3]: < 3 min
- melting point: 68 to 69 °C

SMILES: CC1(CC(=O)Oc2ccc3c(c2)CCC3)CCOC(=O)O1 (stereo not drawn) [compound 11]
- half-life at 4 mM [2, 4]: < 3 min
- half-life at 4 mM [2, 3]: < 3 min
- melting point: 88 to 89 °C

SMILES: CC1(CC(=O)Nc2ccccc2)CCOC(=O)O1 (stereo not drawn) [compound 17]
- half-life at 4 mM [2, 3]: < 3 min

SMILES: CC1(CC(=O)NCc2ccccc2)CCOC(=O)O1 (stereo not drawn) [compound 18]
- half-life at 4 mM [2, 3]: 8 min

SMILES: CC1(CC(=O)NCc2ccc(F)cc2)CCOC(=O)O1 (stereo not drawn) [compound 19]
- half-life at 4 mM [2, 3]: 8 min

SMILES: O=C(CC1(CF)CCOC(=O)O1)OCc1ccccc1 (stereo not drawn) [compound 25]
- half-life at 1 mM [1]: ~25 h
- T1/2 (half-lives of diverse carbonate in human plasma) ([2]; 37° C.): 2 min
- half-life at 4 mM [2, 3]: < 3 min

SMILES: O=C(CC1(CF)CCOC(=O)O1)OCc1ccc(F)cc1 (stereo not drawn) [compound 29]
- half-life at 1 mM [1]: ~25 h
- T1/2 (half-lives of diverse carbonate in human plasma) ([2]; 37° C.): 2 min
- half-life at 4 mM [2, 3]: < 3 min

SMILES: O=C(CC1(CF)CCOC(=O)O1)OCc1ccc(F)cc1F (stereo not drawn) [compound 30]
- half-life at 1 mM [1]: ~25 h
- T1/2 (half-lives of diverse carbonate in human plasma) ([2]; 37° C.): 1 min
- half-life at 4 mM [2, 3]: < 3 min

SMILES: O=C(CC1(C(F)(F)F)CCOC(=O)O1)OCc1ccccc1 (stereo not drawn) [compound 35]
- half-life at 1 mM [1]: ~5 h
- peak of 34 (carbonate moiety decomposition product) in HPLC ([1]; degradation of 35 in PBS buffer): not observed
- T1/2 (half-lives of diverse carbonate in human plasma) ([2]; 37° C.): <1 min
- half-life at 4 mM [2, 3]: < 3 min
- melting point: 87.5 to 88 °C

SMILES: O=C(CC1(C(F)(F)F)CCOC(=O)O1)OCc1ccc(F)cc1 (stereo not drawn) [compound 39]
- half-life at 1 mM [1]: ~5 h
- T1/2 (half-lives of diverse carbonate in human plasma) ([2]; 37° C.): <1 min
- half-life at 4 mM [2, 3]: < 3 min
- melting point: 84 to 85 °C

SMILES: O=C(CC1(C(F)(F)F)CCOC(=O)O1)OCc1ccc(F)cc1F (stereo not drawn) [compound 40]
- half-life at 1 mM [1]: ~5 h
- T1/2 (half-lives of diverse carbonate in human plasma) ([2]; 37° C.): <1 min
- half-life at 4 mM [2, 3]: < 3 min

SMILES: O=C(CC1(C(F)(F)F)CCOC(=O)O1)OCCc1ccccc1 (stereo not drawn) [compound 41]
- half-life at 4 mM [2, 4]: 4 min
- half-life at 4 mM [2, 3]: < 3 min

SMILES: CC1(CC(=O)NCc2ccccc2)CCOCO1 (stereo not drawn) [compound 45]
- T1/2 (stabilities of the benzyl amide analogues with acetal, ketal, t-butyl carbonate promoieties in human plasma) ([2]; 37° C.): >48 h

SMILES: O=C(CC1(C(F)(F)F)CCOCO1)NCc1ccccc1 (stereo not drawn) [compound 46]
- T1/2 (stabilities of the benzyl amide analogues with acetal, ketal, t-butyl carbonate promoieties in human plasma) ([2]; 37° C.): >48 h

SMILES: CC1(CC(=O)NCc2ccccc2)CCOC(C)(C)O1 (stereo not drawn) [compound 47]
- T1/2 (stabilities of the benzyl amide analogues with acetal, ketal, t-butyl carbonate promoieties in human plasma) ([2]; 37° C.): >48 h

SMILES: COC(=O)CC(O)(CF)CCOC(C)=O (stereo not drawn) [compound 63]
- T1/2 (stabilities of amide and ester analogues in human plasma) ([2]; 37° C.): 10 min
- half-life at 4 mM [2, 6]: 10 to 22 min

SMILES: CCOC(=O)CC(O)(CF)CCOC(C)=O (stereo not drawn) [compound 64]
- T1/2 (stabilities of amide and ester analogues in human plasma) ([2]; 37° C.): 11 min
- half-life at 4 mM [2, 6]: 10 to 22 min

Next, values leading:

- half-life at 4 mM [2, 5]: > 2880 min
SMILES: CC1(C)OCCC(CC(=O)NCc2ccccc2)(C(F)(F)F)O1 (stereo not drawn) [compound 48]

- T1/2 (stabilities of the benzyl amide analogues with acetal, ketal, t-butyl carbonate promoieties in human plasma) ([2]; 37° C.): >48 h
SMILES: CC1(CC(=O)NCc2ccccc2)CCOC(c2ccccc2)O1 (stereo not drawn) [compound 49]

- T1/2 (stabilities of the benzyl amide analogues with acetal, ketal, t-butyl carbonate promoieties in human plasma) ([2]; 37° C.): >48 h
SMILES: O=C(CC1(C(F)(F)F)CCOC(c2ccccc2)O1)NCc1ccccc1 (stereo not drawn) [compound 50]

- T1/2 (stabilities of the benzyl amide analogues with acetal, ketal, t-butyl carbonate promoieties in human plasma) ([2]; 37° C.): >48 h
SMILES: COc1ccc(C2OCCC(CC(=O)NCc3ccccc3)(C(F)(F)F)O2)cc1 (stereo not drawn) [compound 51]

- half-life at 4 mM [2, 5]: > 2880 min
SMILES: COc1ccc(C2OCCC(CC(=O)NCc3ccccc3)(C(F)(F)F)O2)cc1 (stereo not drawn) [compound 52]

- T1/2 (stabilities of the benzyl amide analogues with acetal, ketal, t-butyl carbonate promoieties in human plasma) ([2]; 37° C.): >48 h
SMILES: COc1ccc(C2OCCC(CC(=O)NCc3ccccc3)(C(F)(F)F)O2)c(OC)c1 (stereo not drawn) [compound 53]

- T1/2 (stabilities of the benzyl amide analogues with acetal, ketal, t-butyl carbonate promoieties in human plasma) ([2]; 37° C.): >48 h
SMILES: CC(O)(CCOC(=O)OC(C)(C)C)CC(=O)NCc1ccccc1 (stereo not drawn) [compound 54]

- T1/2 (stabilities of the benzyl amide analogues with acetal, ketal, t-butyl carbonate promoieties in human plasma) ([2]; 37° C.): >48 h
SMILES: CC(C)(C)OC(=O)OCCC(O)(CC(=O)NCc1ccccc1)C(F)(F)F (stereo not drawn) [compound 55]

- T1/2 (stabilities of amide and ester analogues in human plasma) ([2]; 37° C.): > 120 min
SMILES: CC(O)(CCO)CC(=O)NCc1c(F)c(F)c(F)c(F)c1F (stereo not drawn) [compound 56]

- half-life at 4 mM ([2]; human, human plasma (100%), 37° C., read-out: T1/2 (stabilities of amide and ester analogues in human plasma)): 20 min
- half-life at 4 mM ([2]; human, human plasma (100%), read-out: half-life of the acetyl groups on the alcohol): ~20 min
SMILES: CC(=O)OCCC(O)(CF)CC(=O)NCc1ccccc1 (stereo not drawn) [compound 65]

Source: patent US9150534B2, “Prodrugs of fluorinated mevalonates to inhibit the mevalonate pathway of Streptococcus pneumoniae” (Northwestern University, priority 2012, dated 2015)
